Literature values as cited in patent US20160095816A2, “ARTICLE AND METHODS FOR ORAL SELF-ADMINISTRATION OF NICOTINE” (priority 2012, published 2016).

Columns and labels:
[1] = cigarette smoking, inhaled; "may be as high as"
[2] = metabolized in the liver

CN1CCCC1c1cccnc1 (centres unmarked) [Nicotine, 3-(1-Methyl-2-pyrrolidinyl) pyridine]
peak of nicotine delivered into the bloodstream through smoking [1]: 30-40 nanograms per milliliter of blood
half life in the bloodstream [2]: 1 to 2 h
